# Test results: the NIST ThermoML archive (doi:10.1021/je0604277)
# Numbers after ± are expanded uncertainties.
# How the values were obtained:
# [1] = 298.15 K; 101 kPa; Liquid mixture 1; rotated drop method
# [2] = for viscosity: 101.33 kPa, Liquid, rotational viscometer; for surface tension liquid-gas: Pendant drop shape
smiles,measurement,setting,value
CCCCn1cc[n+](C)c1.F[P-](F)(F)(F)(F)F [1-butyl-3-methylimidazolium hexafluorophosphate] + CCCCO,interfacial tension,[1],4.706 ± 0.094 mN/m
CCCCn1cc[n+](C)c1.F[P-](F)(F)(F)(F)F [1-butyl-3-methylimidazolium hexafluorophosphate] + C1CCCCC1,interfacial tension,[1],13.15 ± 0.26 mN/m
CCCCn1cc[n+](C)c1.F[P-](F)(F)(F)(F)F [1-butyl-3-methylimidazolium hexafluorophosphate] + CCCCCCCCCCO,interfacial tension,[1],7.516 ± 0.15 mN/m
CCCCn1cc[n+](C)c1.F[P-](F)(F)(F)(F)F [1-butyl-3-methylimidazolium hexafluorophosphate] + CCCCCCCC,interfacial tension,[1],14.29 ± 0.28 mN/m
CCCCn1cc[n+](C)c1.F[P-](F)(F)(F)(F)F [1-butyl-3-methylimidazolium hexafluorophosphate] + c1ccccc1,interfacial tension,[1],2.209 ± 0.044 mN/m
CCCCn1cc[n+](C)c1.F[P-](F)(F)(F)(F)F [1-butyl-3-methylimidazolium hexafluorophosphate] + CCCCC,interfacial tension,[1],13.65 ± 0.27 mN/m
CCCCn1cc[n+](C)c1.F[P-](F)(F)(F)(F)F [1-butyl-3-methylimidazolium hexafluorophosphate] + CCCCOC(C)=O,interfacial tension,[1],0.4344 ± 0.0087 mN/m
CCCCn1cc[n+](C)c1.F[P-](F)(F)(F)(F)F [1-butyl-3-methylimidazolium hexafluorophosphate] + CCCCCCCCO,interfacial tension,[1],7.385 ± 0.15 mN/m
CCCCn1cc[n+](C)c1.F[P-](F)(F)(F)(F)F [1-butyl-3-methylimidazolium hexafluorophosphate] + CCC(=O)O,interfacial tension,[1],3.292 ± 0.066 mN/m
CCCCn1cc[n+](C)c1.F[P-](F)(F)(F)(F)F [1-butyl-3-methylimidazolium hexafluorophosphate] + CCc1ccccc1,interfacial tension,[1],3.995 ± 0.08 mN/m
CCCCn1cc[n+](C)c1.F[P-](F)(F)(F)(F)F [1-butyl-3-methylimidazolium hexafluorophosphate] + CCCCCCCO,interfacial tension,[1],6.41 ± 0.13 mN/m
CCCCCCCCCCCCO [dodecan-1-ol] + CCCCn1cc[n+](C)c1.F[P-](F)(F)(F)(F)F,interfacial tension,[1],8.788 ± 0.17 mN/m
CCCCn1cc[n+](C)c1.F[P-](F)(F)(F)(F)F [1-butyl-3-methylimidazolium hexafluorophosphate] + O,interfacial tension,[1],10.06 ± 0.2 mN/m
CCCCn1cc[n+](C)c1.F[P-](F)(F)(F)(F)F [1-butyl-3-methylimidazolium hexafluorophosphate],viscosity,[2]; 288.15 K,400.2 ± 16 mPa·s
same,viscosity,[2]; 293.15 K,294 ± 12 mPa·s
same,viscosity,[2]; 296.15 K,245.8 ± 10 mPa·s
same,surface tension liquid-gas,[2]; 298.15 K,53.1 ± 2.5 mN/m
same,viscosity,[2]; 298.15 K,217.9 ± 8.6 mPa·s
same,viscosity,[2]; 301.15 K,182.7 ± 7.4 mPa·s
same,viscosity,[2]; 303.15 K,162.9 ± 6.5 mPa·s
same,viscosity,[2]; 305.15 K,145.1 ± 5.6 mPa·s
same,viscosity,[2]; 308.15 K,123.2 ± 4.8 mPa·s
same,viscosity,[2]; 311.15 K,104 ± 4.1 mPa·s
same,viscosity,[2]; 313.15 K,95 ± 3.6 mPa·s
CCCCn1cc[n+](C)c1.F[P-](F)(F)(F)(F)F [1-butyl-3-methylimidazolium hexafluorophosphate] + CCCCCC,interfacial tension,[1],13.39 ± 0.27 mN/m
CCCCn1cc[n+](C)c1.F[P-](F)(F)(F)(F)F [1-butyl-3-methylimidazolium hexafluorophosphate] + CCO,interfacial tension,[1],1.222 ± 0.024 mN/m
CCCCn1cc[n+](C)c1.F[P-](F)(F)(F)(F)F [1-butyl-3-methylimidazolium hexafluorophosphate] + C=CCCCC,interfacial tension,[1],10.42 ± 0.21 mN/m
CCCCn1cc[n+](C)c1.F[P-](F)(F)(F)(F)F [1-butyl-3-methylimidazolium hexafluorophosphate] + CCOC(C)=O,interfacial tension,[1],11.69 ± 0.23 mN/m
CC(C)=Cn1cc[n+](C)c1.F[B-](F)(F)F [1-isobutenyl-3-methylimidazolium tetrafluoroborate],viscosity,[2]; 288.15 K,214.2 ± 8.2 mPa·s
same,viscosity,[2]; 293.15 K,158.7 ± 6.5 mPa·s
same,viscosity,[2]; 296.15 K,133.4 ± 5.4 mPa·s
same,surface tension liquid-gas,[2]; 298.15 K,51.8 ± 2.2 mN/m
same,viscosity,[2]; 298.15 K,118.5 ± 4.6 mPa·s
same,viscosity,[2]; 301.15 K,100.4 ± 4 mPa·s
same,viscosity,[2]; 303.15 K,88.9 ± 3.5 mPa·s
same,viscosity,[2]; 305.15 K,79.8 ± 3.1 mPa·s
same,viscosity,[2]; 308.15 K,68 ± 2.6 mPa·s
same,viscosity,[2]; 311.15 K,58.6 ± 2.2 mPa·s
same,viscosity,[2]; 313.15 K,53.4 ± 2 mPa·s
CCCCn1cc[n+](C)c1.F[P-](F)(F)(F)(F)F [1-butyl-3-methylimidazolium hexafluorophosphate] + Cc1ccccc1,interfacial tension,[1],3 ± 0.06 mN/m
CCCCn1cc[n+](C)c1.F[P-](F)(F)(F)(F)F [1-butyl-3-methylimidazolium hexafluorophosphate] + CCCCCCO,interfacial tension,[1],5.556 ± 0.11 mN/m
C=Cc1ccccc1 [styrene] + CCCCn1cc[n+](C)c1.F[P-](F)(F)(F)(F)F,interfacial tension,[1],1.793 ± 0.036 mN/m
CCCCn1cc[n+](C)c1.F[P-](F)(F)(F)(F)F [1-butyl-3-methylimidazolium hexafluorophosphate] + CCCCCO,interfacial tension,[1],5.325 ± 0.11 mN/m
